Assay results taken from PubChem BioAssay (NCI).
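Following 48 hours of exposure in 96-well plates, responses at five concentrations were used to interpolate endpoints linearly. The concentration for 50% growth inhibition is given as GI50. TGI marks complete inhibition of growth.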

Experiments:
Experiment in all cases: NCI anticancer screen, dose series, 48 h
SF-268 CNS = tested on: SF-268 CNS
SF-295 CNS = tested on: SF-295 CNS
MDA-MB-435 = tested on: MDA-MB-435
RPMI-8226 leukemia = tested on: RPMI-8226 leukemia
RXF 393 renal = tested on: RXF 393 renal
HL-60(TB) leukemia = tested on: HL-60(TB) leukemia
NCI-H522 lung = tested on: NCI-H522 lung
EKVX NSCLC = tested on: EKVX NSCLC
SNB-78 CNS = tested on: SNB-78 CNS
LXFL 529 NSCLC = tested on: LXFL 529 NSCLC

| SMILES | TGI (SF-268 CNS) [µM] | TGI (SF-295 CNS) [µM] | TGI (MDA-MB-435) [µM] | TGI (RPMI-8226 leukemia) [µM] | TGI (RXF 393 renal) [µM] | TGI (HL-60(TB) leukemia) [µM] | TGI (NCI-H522 lung) [µM] | TGI (EKVX NSCLC) [µM] | GI50 (SF-268 CNS) [µM] | GI50 (SF-295 CNS) [µM] | GI50 (MDA-MB-435) [µM] | GI50 (RPMI-8226 leukemia) [µM] | GI50 (RXF 393 renal) [µM] | GI50 (HL-60(TB) leukemia) [µM] | GI50 (NCI-H522 lung) [µM] | GI50 (EKVX NSCLC) [µM] | TGI (SNB-78 CNS) [µM] | TGI (LXFL 529 NSCLC) [µM] |
| --- | --- | --- | --- | --- | --- | --- | --- | --- | --- | --- | --- | --- | --- | --- | --- | --- | --- | --- |
| O=C(CN1C(=O)c2ccccc2C1=O)NC1(C(=O)O)CCCC1 | > 100 | > 100 | > 100 | > 100 | > 100 | > 100 | > 100 | > 100 | – | – | – | – | – | – | – | – | – | – |
| Cn1cnc2nc(Cl)nc(Cl)c21 | 38.2 | > 100 | 13.7 | 26.4 | 7.09 | 8.08 | 3.26 | 34.8 | 3.22 | 3.57 | 0.445 | 0.591 | 2.39 | 3.16 | 1.17 | 13.6 | – | – |
| CC(=O)OC1C(OC/C2=C/C3[C@@H](C(C)C)CC=C(C)[C@@H]3CC(OC(=O)/C=C/c3cn(C)cn3)[C@]3(C)C=C[C@@]2(O)O3)OCC(O)C1O (some centres undefined) | > 50 | 0.296 | 0.0208 | > 50 | 0.0741 | 1.51 | – | > 50 | 0.0336 | 0.03 | 0.00626 | 0.0244 | 0.0149 | 0.0164 | 0.015 | 0.0707 | – | – |
| COc1cc2c(cc1Nc1nc(Nc3ccsc3C(N)=O)c3cc[nH]c3n1)N(C(=O)CN(C)C)CCC2 | 10.6 | 4.8 | 0.489 | 6.56 | 3.34 | 1.09 | 2.19 | 6.35 | 1.15 | 0.974 | 0.0499 | 1.24 | 0.612 | 0.00552 | 0.507 | 0.551 | – | – |
| Cc1nc2c(=O)n(C)c(=O)nc-2n(-c2ccc(Cl)cc2)c1C | > 100 | > 100 | – | – | – | > 100 | > 100 | > 100 | – | – | – | – | – | – | – | – | > 100 | > 100 |
| CN(C)c1ccc(/C=C/C(=O)c2ccc(Nc3nc(Nc4ccc(F)cc4)nc(Nc4ccc(Cl)cc4)n3)cc2)cc1 | 63.6 | 31.9 | 17.3 | 26.5 | 6.1 | 5.34 | 24.1 | > 100 | 6.75 | 4.78 | 3.03 | 3.53 | 1.92 | 1.75 | 3.17 | 8.21 | – | – |
| O=[N+]([O-])c1ccc(-c2ccc(C3=Nn4c(nnc4-c4ccc(Cl)cc4)SC3)o2)cc1 | > 100 | > 82.1 | – | > 100 | – | > 100 | > 100 | > 100 | – | – | – | – | – | – | – | – | – | > 100 |
| S=C(N/N=C/c1ccccc1)NC1CC(c2ccccc2)Oc2ccccc21 (centres undefined) | > 100 | 87.7 | – | – | – | – | > 100 | > 100 | – | – | – | – | – | – | – | – | 96.1 | > 100 |
| O=S(O)CCCSSCCCCSSCCCS(=O)O | > 100 | > 100 | – | – | > 100 | – | > 100 | > 100 | – | – | – | – | – | – | – | – | > 100 | > 100 |
| C=CC(=O)N1CC[C@@H](Oc2nc(Nc3ccc(N4CCC(N5CCN(C)CC5)CC4)cc3)c(C(N)=O)nc2CC)C1 | > 100 | > 100 | > 100 | > 100 | > 100 | > 100 | > 100 | > 100 | > 100 | > 100 | > 100 | > 100 | > 100 | > 100 | > 100 | > 100 | – | – |
| CC(=O)OC12CCCCC1C1(CCCC1)NC2=O (centres undefined) | > 100 | > 100 | – | > 100 | > 100 | > 100 | – | > 100 | – | – | – | – | – | – | – | – | > 100 | > 100 |
| COc1cc(OC)c(-c2oc3ccccc3c(=O)c2O)c(OC)c1 | > 100 | > 26.9 | 2.5 | > 100 | 37.7 | > 24.1 | > 29.2 | > 100 | – | – | – | – | – | – | – | – | – | – |
| CCN(CC)CCC(CNc1c2ccc(Cl)cc2nc2ccc(OC)cc12)c1ccccc1 (centres undefined) | 3.8 | 3.02 | 3.09 | 3.85 | 2.68 | 4.71 | 2.1 | 8.3 | 1.33 | 1.41 | 1.5 | 1.33 | 1.23 | 1.87 | 0.555 | 2.32 | – | – |
| N#Cc1c(-c2ccc(Cl)cc2)n([O-])c2ccccc2[n+]1=O | 33.8 | 30.3 | 27 | 5.11 | 33.2 | 11.4 | 38.5 | 20.5 | 14.6 | 16.4 | 13.7 | 1.99 | 11 | 3.1 | 14.7 | 5.63 | – | – |
| CCOC(=O)C(Cc1ccc(N(CCCl)CCCl)cc1)NC(=O)C(CC(C)C)NC(C)=O (centres undefined) | 5.51 | 16.6 | 3.25 | 6.7 | 2.3 | 1.9 | 2.65 | 19.7 | 1.09 | 2.12 | 1.43 | 1.96 | 0.944 | 0.304 | 1.13 | 5.95 | – | – |
| C#Cc1cccc(NC(=O)Nc2cccc(NC(=O)CCl)c2)c1 | > 82.5 | > 82.5 | > 82.5 | 48.3 | 63.6 | 73.9 | 48.6 | > 82.5 | 25.7 | > 82.5 | 24.2 | 12.5 | 13.4 | 18.6 | 15.2 | > 82.5 | – | – |
| C/C=C\C(C)=C/C(C)C(=O)CC(O)CC1CC(=O)NC(=O)C1 (centres undefined) | > 100 | > 100 | > 100 | > 76.6 | > 100 | > 100 | 13.6 | > 100 | – | – | – | – | – | – | – | – | – | – |
| COC(=O)c1c(OC(=O)c2ccccc2)noc1CC(=O)OC1C=CCCC1 (centres undefined) | > 100 | – | – | > 100 | > 100 | > 100 | > 100 | – | – | – | – | – | – | – | – | – | > 100 | > 100 |
